# Measurements as given in US20260060991A1, “METHODS AND COMPOSITIONS FOR INHIBITING CLONAL HEMATOPOIESIS” (The Jackson Laboratory, priority 2022, published 2026).
# “Also recorded” adds a separate entry of the source.
# System: WT recipient mice transplanted with Dnmt3a-mutant cells (Dnmt3a;Npm1-mutant)
# Test: Navitoclax treatment of mice transplanted with Dnmt3a-mutant cells, followed by tamoxifen induction of the Npm1 mutation (progression from clonal hematopoiesis to myeloid malignancy)
# Assay type: in vivo, mouse
# Experimental: FIG. 6A-6E: Navitoclax treatment attenuates Dnmt3a-mutant peripheral blood myeloid cell overproduction. (FIG. 6A) Dnmt3a-mutant cells were transplanted into wild type recipient mice, 12 weeks post-transplant Navitoclax or vehicle control was administered, and 2 weeks later the Npm1 mutation was induced in the Dnmt3a-mutant cells. (FIG. 6B) Frequency of donor-derived mature Dnmt3a;Npm1-mutant myeloid cells in peripheral blood of Navitoclax or vehicle control treated transplant mice. (FIG. 6C) Engraftment of donor-derived mature Dnmt3a;Npm1-mutant myeloid cells in BM (FIG. 6D) β-gal expression in BMSCs, and (FIG. 6E) monocyte count in navitoclax versus vehicle treated mice.
# Next, the functional importance of BMSC senescence in Dnmt3a-mutant transformation to AML was evaluated. Dnmt3a-mutant cells were transplanted into WT recipient mice, administered the senolytic Navitoclax or vehicle control, and then induced the AML driver mutation Npm1^c in vivo.
# Using the senolytic Navitoclax, targeting Bcl-2/Bcl-xL, we evaluated the extent to which removing senescent cells caused by Dnmt3a-mutant haematopoiesis in vivo would delay progression from clonal hematopoiesis to myeloid malignancy. Briefly, Dnmt3a-mutant cells (cells from BM derived from CD45.2^+; Dnmt3a^R787H/+ MxCre; Npm1^frt-cA/+Flpo^ERT mice) were transplanted into recipient mice (CD45.1^+ mice) (FIG. 6A). After 12 weeks (‘Pre-senolytic’), recipient mice were either administered vehicle control or the senolytic agent, navitoclax, by oral gavage to selectively deplete senescent cells. Navitoclax was administered at a dosage of 50 mg/kg/day for 1 week, followed by 2 weeks of no treatment, followed by 1 week of treatment. Blood samples were collected from Pre-senolytic mice before administration of vehicle control or navitoclax. Following navitoclax treatment (‘Post-senolytic’), the AML driver mutation Npm1^cA/+ (‘TAM’) was induced using tamoxifen to initiate progression to myeloid malignancy. Blood samples were collected from Post-senolytic mice and TAM mice. Tamoxifen was administered for a period of 1 week. Blood samples were taken from tamoxifen treated mice (“Post-Npm1”).
substance,measurement,setting,value
navitoclax,frequency of donor (CD45.2+) cells in the BM,"5 months after tamoxifen treatment (harvest), relative to vehicle treated controls, FIG. 6C",lower frequency
same,BMSC senescence (measured by β-gal),"5 months after tamoxifen treatment (harvest), relative to vehicle treated controls, FIG. 6D",maintained lower BMSC senescence
same,"monocyte (""white blood cell"" or ""WBC"") count","5 months after tamoxifen treatment (harvest), relative to vehicle treated controls, FIG. 6E",reduced monocyte
same,frequency of myeloid cells (CD45.2+) in the peripheral blood (PB),"Post-Npm1 sampling, navitoclax 50 mg/kg/day oral gavage, 1 week on, 2 weeks off, FIG. 6B",reduced frequency
same,peripheral blood myeloid cell overproduction,"concurrent with transformation of Dnmt3a;Npm1-mutant cells, vs vehicle control",reduced; also recorded: attenuates
